The supplement of paper PMC10307832

Legend:
Assay in all cases: relative viability (nuclei count vs DMSO), 5 days (fraction); higher = more cells survive
Obatoclax + Crizotinib = compound: COC1=CC(c2cc3ccccc3[nH]2)=N/C1=C\c1[nH]c(C)cc1C [Obatoclax] + C[C@@H](Oc1cc(-c2cnn(C3CCNCC3)c2)cnc1N)c1c(Cl)ccc(F)c1Cl [Crizotinib] (partner 1 µM)
Procedure, shortened: (§1)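 Lung cancer cell lines in 1536-well plates were dosed by pin tool the day after seeding, either with one drug alone or with a fixed anchor-drug dose plus five library-drug doses (not always all listed) in √10 steps. After 5 days, cells were fixed and their nuclei stained in one step (final 0.05% Triton X-100, 1% formaldehyde, 1 ug/ml Hoechst), then counted on 4× images. Relative viability is the nuclei count in treated wells divided by that in vehicle wells. Values are medians of duplicate plates.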

Bortezomib + Trametinib = compound: CC(C)C[C@H](NC(=O)[C@H](Cc1ccccc1)NC(=O)c1cnccn1)B(O)O [Bortezomib] + CC(=O)Nc1cccc(-n2c(=O)n(C3CC3)c(=O)c3c(Nc4ccc(I)cc4F)n(C)c(=O)c(C)c32)c1 [Trametinib] (partner 0.02 µM)
Procedure, shortened: as §1

[1] = compound: CC1=CC(=NN1)NC2=CC(=NC(=N2)/C=C/C3=CC=CC=C3)N4CCN(CC4)C + CCNC(=O)c1noc(-c2cc(C(C)C)c(O)cc2O)c1-c1ccc(CN2CCOCC2)cc1 [Luminespib] (partner 0.01 µM)
Procedure, shortened: as §1

Obatoclax + Tozasertib = compound: COC1=CC(c2cc3ccccc3[nH]2)=N/C1=C\c1[nH]c(C)cc1C [Obatoclax] + Cc1cc(Nc2cc(N3CCN(C)CC3)nc(Sc3ccc(NC(=O)C4CC4)cc3)n2)n[nH]1 [Tozasertib] (partner 0.1 µM)
Procedure, shortened: as §1

Cell Line	relative viability (Obatoclax + Crizotinib; first compound 0.01 µM)	relative viability (Obatoclax + Crizotinib; first compound 0.03162 µM)	relative viability (Obatoclax + Crizotinib; first compound 0.1 µM)	relative viability (Obatoclax + Crizotinib; first compound 0.3162 µM)	relative viability (Obatoclax + Crizotinib; first compound 1 µM)	relative viability (Bortezomib + Trametinib; first compound 0.0002 µM)	relative viability (Bortezomib + Trametinib; first compound 0.000632 µM)	relative viability (Bortezomib + Trametinib; first compound 0.002 µM)	relative viability (Bortezomib + Trametinib; first compound 0.006325 µM)	relative viability (Bortezomib + Trametinib; first compound 0.02 µM)	relative viability ([1]; first compound 0.08 µM)	relative viability ([1]; first compound 0.253 µM)	relative viability ([1]; first compound 0.8 µM)	relative viability ([1]; first compound 2.53 µM)	relative viability ([1]; first compound 8 µM)	relative viability (Obatoclax + Tozasertib; first compound 0.01 µM)	relative viability (Obatoclax + Tozasertib; first compound 0.03162 µM)	relative viability (Obatoclax + Tozasertib; first compound 0.1 µM)	relative viability (Obatoclax + Tozasertib; first compound 0.3162 µM)	relative viability (Obatoclax + Tozasertib; first compound 1 µM)
LOU-NH91	0.768	0.628	0.703	0.874	0.759	0.772	0.793	0.402	0.344	0.359	0.391	0.402	0.322	0.299	0.228	0.658	0.655	0.513	0.598	0.489
LU99A	0.614	0.498	0.569	0.236	0.233	0.546	0.522	0.567	0.517	0.148	0.254	0.235	0.192	0.197	0.161	0.304	0.28	0.287	0.288	0.233
NCI-H522						0.753	0.821	0.796	0.387	0.331	0.957	0.995	1.15	0.845	0.507	0.656	0.429	0.605	0.545	0.539
NCI-H1299	0.918	0.944	0.959	0.921	0.492															
NCI-H1395						1.14	0.939	0.708	0.315	0.31	0.782	0.687	0.699	0.401	0.293	0.674	0.609	0.64	0.769	0.547
NCI-H1563	0.786	0.864	0.881	0.906	0.653						0.498	0.554	0.537	0.553	0.434					
NCI-H1623											0.579	0.493	0.48	0.494	0.305	0.428	0.422	0.426	0.451	0.38
NCI-H1648						0.465	0.594	0.371	0.263	0.389						0.515	0.499	1.01	0.465	0.361
NCI-H1703	0.762	0.697	0.394	0.348	0.311															
NCI-H1792	0.999	0.948		0.999	0.99	0.506	0.413	0.446	0.292	0.0651	0.407	0.375	0.412	0.319	0.122					
NCI-H1793						0.445		0.457	0.414	0.132	0.16	0.184	0.151	0.136	0.116	0.309	0.393	0.406	0.324	0.297
NCI-H2342						0.869	0.965	0.815	0.924	0.386	0.543	0.699	0.705	0.546	0.536	0.516	0.594	0.656	0.587	0.633
SW 900						0.587	0.578	0.167	0.155	0.145	0.164	0.136	0.159	0.168	0.11	0.67	0.571	0.499	0.33	0.281
